The source of these data is patent US9526717B2, “Composition for treating immune diseases containing daurinol compound as active ingredient” (THE CATHOLIC UNIVERSITY OF KOREA INDUSTRY-ACADEMIC …, priority 2013, dated 2016).

Molecules are shown by their SMILES.

In one test the test system is splenocyte cell line. Nature of the test: TNF-α secretion of LPS treated splenocyte cell line (sandwich ELISA). The test is classed as cell-based. The note with it: 20 μM daurinol; LPS 100 ng/mL. The protocol: For this purpose, a splenocyte cell line was treated with anti-CD3 antibodies (0.5 μg/mL) to induce the secretion of IL-17, or treated with LPS (100 ng/mL) to induce the secretion of TNF-α. Then, the splenocyte cell line was treated with daurinol at concentrations of 0.5 μM, 2.5 μM, and 20 μM, and the supernatants were combined and the amount of IL-17 and TNF-α were examined by sandwich ELISA assay. The resultant was reacted in a 96-well plate with monoclonal anti-IL-17 or anti-TNF-α (2 μg/mL) at 4° C. overnight, and upon reaction, the non-specific binding was blocked using a blocking solution (1% BSA/PBST). IL-17 recombinant or TNF-α in a half amount was continuously diluted and used as standards, and the supernatant of cell culture was reacted at room temperature for 2 hours. Then, the biotinylated anti-IL-17 was reacted at room temperature for 2 hours, washed 4 times, and added with ExtraAvidin-alkaline phosphatase conjugate after dilution, and reacted at room temperature for 2 hours. Subsequently, PNPP/DEA solution was added thereto to fix color and absorbance was measured at 405 nm.
On the technique in general: ELISA stands for enzyme-linked immunosorbent assay.

The subject of another test is CD4+ T cells. Briefly: Inhibition of T cell proliferation in allogenic reaction in vitro. The test is classed as cell-based, mouse. To be noted: daurinol 0.5, 2, 10 and 20 μM. As for the experimental part: For the confirmation of the effect of the daurinol compound on the inhibition of T cell proliferation and the expression amount of IL-17, the CD4+ T cells (2×10^5 cells) of a normal recipient (Balb/c, responder), and the T cell-removed splenocytes (2×10^5 cells) derived from a recipient (homogenic) or the splenocytes (2×10^5 cells) derived from a donor (C57BL/6, stimulator, allogenic) exposed to irradiation were added to each well of a 96-well round bottom plate, mixed, and cultured in vitro. In particular, the T cell proliferation and the secretion of IL-17 when an allogenic reaction was untreated with daurinol or treated with daurinol at 0.5 μM, 2 μM, 10 μM, and 20 μM, respectively, were observed.

The test system of test [1] is animal model with induced inflammatory bowel disease. Briefly: Weight, disease activity index and length of intestine in animal model with inflammatory bowel disease. The test is classed as in vivo, mouse. An excerpt:
For the confirmation of the effect of the daurinol compound of the present invention on the treatment of inflammatory bowel disease, the present inventors first constructed an animal model with induced inflammatory bowel disease. For the experimental model, C57BL/6(H-2kb) mice were used. For the construction of an animal model with induced inflammatory bowel disease, the mice were fed with 3.5% dextran sulfate sodium (DSS) and water for a week, thereby preparing an animal model with induced inflammatory bowel disease. The present inventors divided the experimental animals into a normal control group, a group of an animal model with induced inflammatory bowel disease, and a group of an animal model with induced inflammatory bowel disease treated with daurinol or a TNF-α inhibitor, and the group treated with daurinol was administered orally and intrarectally with daurinol (20 mg/kg) from the 4th day after the induction with the disease. […] Additionally, one of the features of inflammatory bowel disease is that the damage and shortening of the length of the large intestine are related to the disease activity index. For the analysis of the therapeutic effect of daurinol on the inflammatory bowel disease, the experimental animals were euthanased two weeks after the daurinol treatment, and the length of their intestines were measured.

Another test concerns phospho m-TOR. Briefly: Western blot of phospho m-TOR in CD4+T cells. The test is classed as cell-based. The note with it: CD4+T cells of normal mouse, daurinol 5 μM, anti-CD3 0.5 μg/mL, 3 days. The protocol:
For the observation of changes in intracellular cell signaling factors treated with daurinol, a western blot analysis was performed. For this purpose, CD4+T cells were isolated from a normal mouse, treated with daurinol (5 μM) in a condition already treated with anti-CD3 antibodies (0.5 μg/mL), cultured for 3 days, and the cells were dissolved and proteins were extracted therefrom. Then, the extracted proteins were subjected to SDS-PAGE electrophoresis, and the proteins were electrically transferred onto a nitrocellulose membrane, subjected to a blocking reaction with 5% skim milk for 1 hour, reacted by attaching primary antibodies to STAT3, STAT3p705, STAT3p727, and phospho m-TOR thereto, reacting again by attaching secondary antibodies to the same, and sensitized onto a Kodak X-ray using enhanced chemilunimoecence (ECL), and thereby the protein expression levels of the genes were analyzed.
Background: A western blot detects proteins with antibodies after separation by electrophoresis.

Test [2] concerns animal model with collagen induced arthritis (CIA). Briefly: Histological examination of joints of CIA animals. In kind it is in vivo, mouse. The note with it: injected intravenously, three weeks after, H&E, Toluidine blue, Safranin O.
The subject of test [3] is mouse with induced inflammatory bowel disease (IBD). Briefly: Antibodies expressed in the sera of IBD animal model. The test is classed as in vivo. To be noted: IBD mice treated with daurinol. An excerpt:
(§1) For the confirmation of the effect of the daurinol compound of the present invention on the treatment of inflammatory bowel disease, the present inventors first constructed an animal model with induced inflammatory bowel disease. For the experimental model, C57BL/6(H-2kb) mice were used. For the construction of an animal model with induced inflammatory bowel disease, the mice were fed with 3.5% dextran sulfate sodium (DSS) and water for a week, thereby preparing an animal model with induced inflammatory bowel disease.
(§2) The present inventors divided the experimental animals into a normal control group, a group of an animal model with induced inflammatory bowel disease, and a group of an animal model with induced inflammatory bowel disease treated with daurinol or a TNF-α inhibitor, and the group treated with daurinol was administered orally and intrarectally with daurinol (20 mg/kg) from the 4th day after the induction with the disease.
(§3) Sera were isolated from a mouse with induced inflammatory bowel disease (IBD), and mice treated with daurinol and TNF-α inhibitor, respectively. The levels of IL-17, IFNγ, IL-6, and the like, which are inflammatory cytokines, in the isolated sera were measured by ELISA assay.
Accordingly, since daurinol can reduce not only the expression of the inflammatory cytokines but also the formation of antibodies in an animal model with inflammatory bowel disease, daurinol can inhibit and control the immune response to autoantibodies and the B cell-related inflammation responses.

Test [4] relates to VEGF. Nature of the test: VEGF expression in the intestinal tissues of IBD mouse model. In kind it is in vivo. To be noted: animal (mouse) model with inflammatory bowel disease.
Source text: as §1, §2

The test system of test [5] is VEGF. Briefly: VEGF expression in human large intestine cell line HT-29. The test is classed as cell-based.
Test [6] has as its system mouse with induced inflammatory bowel disease (IBD). Nature of the test: Inflammatory cytokines in the serum of IBD animal model (ELISA). The test is classed as in vivo. The note with it: IBD mice treated with daurinol.
Source text: as §1, §2, §3

For `COc1cc2c(-c3ccc4c(c3)OCO4)c3c(cc2cc1O)COC3=O` [daurinol], the “secretion of TNF-α decreased by” value with splenocyte cell line is “about 40%”. In the test with CD4+ T cells, the T cell proliferation result is listed as “inhibited T cell proliferation in a dose-dependent manner”. In test [1] (DSS-induced IBD C57BL/6 mice, daurinol 20 mg/kg orally and intrarectally from 4th day), the “disease activity index (DAI)” value was “significant decrease”. The weight result in [1] (DSS-induced IBD C57BL/6 mice, daurinol 20 mg/kg orally and intrarectally from 4th day, vs IBD group) was “significant improvement in weight”. The “length of the intestine” value in test [1] (DSS-induced IBD mice, two weeks after the daurinol treatment, vs IBD group) is recorded as “significant increase in the length of the intestine”. In addition, the “expression of phospho m-TOR” value in the test with phospho m-TOR was “significant decrease”. Moreover, in test [2], the “degree of destruction of joints and cartilage” value is given as “not exhibited to be severe”. In [3], the “level of IgG1 antibodies in sera” value was “reduced the levels”, the “level of IgG2 antibodies in sera” value was “reduced the levels”, the “level of IgG3 antibodies in sera” value is “reduced the levels” and the “level of IgG antibodies in sera” value is listed as “reduced the levels”. In the test on VEGF [4], the “VEGF expression in the intestinal tissues” value is on record as “significantly inhibited the VEGF expression”. Also, in the test with VEGF [5], the “activity of VEGF, analysis in terms of inhibition (%)” value is “significantly inhibits the activity of VEGF”; the “inhibitory effect against the VEGF expression, compared to comparators” value is “greater inhibitory effect against the VEGF expression compared to those of TNF-α inhibitor and merformin”. In addition, in test [6], the “level of IFNγ in serum (ELISA)” value was “significantly inhibits”, the “level of IL-6 in serum (ELISA)” value is given as “significantly inhibits” and the “level of IL-17 in serum (ELISA)” value is recorded as “significantly inhibits”.
